Reference: US20240180817A1, “PLANT FERMENTED LIQUID, PLANT FERMENTED PRODUCT PRODUCED USING GLUCONOBACTER THAILANDICUS STRAIN AND USE THEREOF” (LG HOUSEHOLD & HEALTH CARE LTD., priority 2022, published 2024)

System: human keratinocyte HaCaT
Assay: Hyaluronic acid synthesis, Quantikine ELISA Hyaluronan
Format: cell-based
Conditions: 30 ppb, 72 hours
Method: Samples were treated with human keratinocyte HaCaT for 72 hours at each concentration. Hyaluronic acid synthesis was compared with the control group (DMEM treatment containing 0% serum) using Quantikine ELISA Hyaluronan from R&D Systems to quantify the moisturizing ability.

## CC1=C(/C=C/C(C)=C/C=C/C(C)=C/C(=O)O)C(C)(C)CCC1 [Retinoic acid]
  Hyaluronic Acid Synthesis Ability: 18.6 % of control
